These results are taken from ChEMBL document CHEMBL1817645, “Synthesis and pharmacological evaluation of 1-alkyl-N-[2-ethyl-2-(4-fluorophenyl)butyl]piperidine-4-carboxamide derivatives as novel antihypertensive agents” (Bioorg Med Chem, 2011).

pIC50: −log10 of the molar value. Active and inactive are the calls of the source. No cut-off for these calls is given here.

Voltage-dependent T-type calcium channel subunit alpha-1G, sequence (O43497 whole entry): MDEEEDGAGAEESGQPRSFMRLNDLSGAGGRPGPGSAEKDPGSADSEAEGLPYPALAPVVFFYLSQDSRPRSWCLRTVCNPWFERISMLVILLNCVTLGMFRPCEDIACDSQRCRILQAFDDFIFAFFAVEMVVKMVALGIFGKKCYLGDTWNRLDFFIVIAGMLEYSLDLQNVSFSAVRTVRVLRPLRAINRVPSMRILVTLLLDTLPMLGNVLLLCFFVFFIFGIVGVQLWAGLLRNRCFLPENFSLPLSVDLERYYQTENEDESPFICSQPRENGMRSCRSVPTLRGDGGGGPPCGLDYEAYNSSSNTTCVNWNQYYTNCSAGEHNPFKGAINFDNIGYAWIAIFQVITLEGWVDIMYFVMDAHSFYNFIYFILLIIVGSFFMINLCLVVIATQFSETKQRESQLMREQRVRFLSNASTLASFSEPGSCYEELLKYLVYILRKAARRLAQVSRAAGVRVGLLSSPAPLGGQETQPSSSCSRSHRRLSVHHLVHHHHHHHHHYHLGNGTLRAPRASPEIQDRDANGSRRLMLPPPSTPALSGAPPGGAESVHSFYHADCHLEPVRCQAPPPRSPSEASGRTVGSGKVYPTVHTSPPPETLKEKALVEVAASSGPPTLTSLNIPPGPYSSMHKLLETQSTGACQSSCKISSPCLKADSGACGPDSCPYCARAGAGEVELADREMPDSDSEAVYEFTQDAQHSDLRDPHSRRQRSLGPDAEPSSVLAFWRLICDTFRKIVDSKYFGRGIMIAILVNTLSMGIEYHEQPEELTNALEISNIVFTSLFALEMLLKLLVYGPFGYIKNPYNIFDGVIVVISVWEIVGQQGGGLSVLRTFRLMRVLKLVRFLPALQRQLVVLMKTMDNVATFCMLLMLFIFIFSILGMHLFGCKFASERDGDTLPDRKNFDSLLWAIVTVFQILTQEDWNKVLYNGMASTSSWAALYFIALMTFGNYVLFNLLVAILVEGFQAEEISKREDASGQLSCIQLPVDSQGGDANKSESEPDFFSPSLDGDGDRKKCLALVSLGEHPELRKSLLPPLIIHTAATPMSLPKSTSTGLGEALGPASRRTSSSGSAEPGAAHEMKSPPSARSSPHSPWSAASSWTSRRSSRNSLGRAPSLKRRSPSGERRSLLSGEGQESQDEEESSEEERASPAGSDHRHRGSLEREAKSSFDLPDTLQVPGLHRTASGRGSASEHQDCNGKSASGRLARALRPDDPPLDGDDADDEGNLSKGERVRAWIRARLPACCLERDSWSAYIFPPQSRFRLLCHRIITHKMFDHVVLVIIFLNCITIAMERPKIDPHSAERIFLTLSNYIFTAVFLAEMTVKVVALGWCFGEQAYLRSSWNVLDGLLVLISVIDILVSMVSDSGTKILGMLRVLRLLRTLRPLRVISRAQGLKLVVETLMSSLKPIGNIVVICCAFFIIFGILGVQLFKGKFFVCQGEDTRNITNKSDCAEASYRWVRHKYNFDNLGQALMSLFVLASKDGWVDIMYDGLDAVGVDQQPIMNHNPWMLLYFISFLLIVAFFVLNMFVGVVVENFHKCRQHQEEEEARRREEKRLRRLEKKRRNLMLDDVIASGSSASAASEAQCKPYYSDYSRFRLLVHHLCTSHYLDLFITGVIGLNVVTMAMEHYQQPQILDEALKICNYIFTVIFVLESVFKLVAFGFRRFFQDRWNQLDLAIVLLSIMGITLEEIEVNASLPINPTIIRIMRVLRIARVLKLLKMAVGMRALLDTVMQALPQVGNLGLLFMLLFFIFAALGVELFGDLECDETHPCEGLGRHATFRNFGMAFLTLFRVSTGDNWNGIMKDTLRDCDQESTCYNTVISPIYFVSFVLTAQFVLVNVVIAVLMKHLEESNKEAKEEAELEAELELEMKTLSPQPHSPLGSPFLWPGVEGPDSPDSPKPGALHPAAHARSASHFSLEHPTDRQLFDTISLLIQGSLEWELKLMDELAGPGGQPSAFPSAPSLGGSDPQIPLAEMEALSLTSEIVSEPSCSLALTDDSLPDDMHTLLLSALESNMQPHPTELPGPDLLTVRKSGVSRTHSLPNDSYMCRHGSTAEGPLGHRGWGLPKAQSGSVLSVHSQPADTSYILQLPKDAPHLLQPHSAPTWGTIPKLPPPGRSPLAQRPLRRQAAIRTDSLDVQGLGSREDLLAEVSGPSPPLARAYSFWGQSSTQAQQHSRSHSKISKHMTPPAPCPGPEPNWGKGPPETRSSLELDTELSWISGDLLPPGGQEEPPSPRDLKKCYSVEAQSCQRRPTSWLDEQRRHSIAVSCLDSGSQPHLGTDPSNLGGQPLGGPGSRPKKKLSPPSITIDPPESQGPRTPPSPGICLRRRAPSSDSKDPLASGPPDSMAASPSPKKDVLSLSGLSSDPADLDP

The subject of the first data set is Rattus norvegicus. Briefly: Antihypertensive activity in spontaneously hypertensive rat assessed as reduction of mean blood pressure at 30 mg/kg, po after 8 hrs. It counts as functional, organism-based. Details: dose 30 mg/kg.
Details: not given
For `CCC(CC)(CNC(=O)C1CCN(CCc2ccccc2)CC1)c1ccc(F)cc1`, the outcome was Active.

Tested on in another data set: not listed separately
Briefly: Bradycardic activity in Hartley guinea pig right atrial muscles assessed as reduction of initial spontaneous beat rate after 30 mins. It counts as functional. The following applies: Cavia porcellus, Muscle tissue, 0.5 h.
The EC30 is the concentration needed for an effect of 30%. As to `COCC(=O)O[C@]1(CCN(C)CCCc2nc3ccccc3[nH]2)CCc2cc(F)ccc2[C@@H]1C(C)C` [MIBEFRADIL], the EC30 worked out at 2900 nM.

As to `CCC(CC)(CNC(=O)C1CCN(Cc2ccccc2F)CC1)c1ccc(F)cc1`, the concentration for an effect of 30% (EC30) was 4200 nM.

As to `COc1ccc(CN2CCC(C(=O)NCC3(c4ccc(F)cc4)CCCCC3)CC2)cc1OC`, the EC30 stood at 2100 nM.

As for `CCC(CC)(CNC(=O)C1CCN(CCc2ccccc2)CC1)c1ccc(F)cc1`, the EC30 was 2500 nM.

Another data set addresses Voltage-dependent T-type calcium channel subunit alpha-1G (Homo sapiens, UniProt O43497). Briefly: Inhibition of human Cav3.1 alpha1G expressed in HEK293 cells assessed as inhibition of calcium influx by FLIPR assay. It counts as cell-based.
Details: not given
Usually pIC50 stands for −log10 of the IC50, conventionally taken in molar units. As for `CCC(CC)(CNC(=O)C1CCN(Cc2ccccc2)CC1)c1ccc(F)cc1`, the negative-log IC50 (pIC50) is 7.07.

Regarding `CCC(CC)(CNC(=O)C1CCN(CCc2ccc(F)cc2)CC1)c1ccc(F)cc1`, the pIC50 is 6.74.

Take `CCCC(CCC)(CNC(=O)C1CCN(Cc2ccccc2)CC1)c1ccc(F)cc1`: the pIC50 is 6.43.

Turning to `CCC(CC)(CNC(=O)C1CCN(Cc2cccc(F)c2)CC1)c1ccc(F)cc1`, the pIC50 was 6.89.

As to `CCC(CC)(CNC(=O)C1CCN(CCc2ccccc2OC)CC1)c1ccc(F)cc1`, the pIC50 is 6.77.

With `CCC(CC)(CNC(=O)C1CCN(Cc2ccc(OC)cc2)CC1)c1ccc(F)cc1`, the pIC50 is 6.70.

Take `CCC(CC)(CNC(=O)C1CCN(CCCCc2ccccc2)CC1)c1ccc(F)cc1`: the negative-log IC50 (pIC50) is 6.60.

Turning to `CCC(CC)(CNC(=O)C1CCN(Cc2ccccc2OC)CC1)c1ccc(F)cc1`, the pIC50 is 6.92.

Take `Fc1ccc(C2(CNCC3CCN(Cc4ccccc4)CC3)CCCCC2)cc1`: the pIC50 was 5.92.

Take `O=C(NCC1(c2ccc(F)cc2)CCCCC1)C1CCCCN1Cc1ccccc1` (configuration not stated): the negative-log IC50 (pIC50) is 5.52.

In the case of `CCC(CC)(CNC(=O)C1CCN(CCc2ccccc2F)CC1)c1ccc(F)cc1`, the negative-log IC50 (pIC50) is 7.05.

On to `CCC(CC)(CNC(=O)C1CCN(CCc2ccc(OC)cc2)CC1)c1ccc(F)cc1`, for which the negative logarithm of the IC50 (pIC50) is 6.11.

On to `CCC(CC)(CNC(=O)C1CCN(Cc2ccccc2F)CC1)c1ccc(F)cc1`, for which the negative-log IC50 (pIC50) was 7.44.

In the case of `O=C(NCC1(c2ccc(F)cc2)CCOCC1)C1CCN(Cc2ccccc2)CC1`, the pIC50 is 5.66.

On to `CCC(CC)(CNC(=O)C1CCN(Cc2cccc(OC)c2)CC1)c1ccc(F)cc1`, for which the pIC50 is 7.03.

Regarding `CN(CC1(c2ccc(F)cc2)CCCCC1)C(=O)C1CCN(Cc2ccccc2)CC1`, the pIC50 was 6.12.

With `O=C(NCC1(c2ccc(F)cc2)CCCC1)C1CCN(Cc2ccccc2)CC1`, the negative-log IC50 (pIC50) was 6.66.

Regarding `O=C(NCC1(c2ccc(F)cc2)CCC1)C1CCN(Cc2ccccc2)CC1`, the negative logarithm of the IC50 (pIC50) was 6.41.

On to `O=C(NCC1(c2ccc(F)cc2)CCCCC1)C1CCN(Cc2ccccc2)CC1`, for which the pIC50 is 6.29.

As to `CCC(CC)(CNC(=O)C1CCN(CCc2cccc(OC)c2)CC1)c1ccc(F)cc1`, the negative-log IC50 (pIC50) is 6.85.

On to `COc1ccc(CN2CCC(C(=O)NCC3(c4ccc(F)cc4)CCCCC3)CC2)cc1OC`, for which the negative-log IC50 (pIC50) was 6.49.

For `CC(C)(CNC(=O)C1CCN(Cc2ccccc2)CC1)c1ccc(F)cc1`, the negative-log IC50 (pIC50) is 6.89.

Take `CCC(CC)(CNC(=O)C1CCN(Cc2ccc(F)cc2)CC1)c1ccc(F)cc1`: the negative logarithm of the IC50 (pIC50) is 7.09.

As to `O=C(CCC1(c2ccc(F)cc2)CCCCC1)C1CCN(Cc2ccccc2)CC1`, the pIC50 is 5.70.

For the compound `CCC(CC)(CNC(=O)C1CCN(CCOc2ccccc2)CC1)c1ccc(F)cc1`, the pIC50 was 6.59.

On to `O=C(CC1(c2ccc(F)cc2)CCCCC1)NC1CCN(Cc2ccccc2)CC1`, for which the pIC50 was 6.07.

With `CCC(CC)(CNC(=O)C1CCN(CCc2ccccc2)CC1)c1ccc(F)cc1`, the negative logarithm of the IC50 (pIC50) was 7.05.

For the compound `CCC(CC)(CNC(=O)C1CCN(CCCc2ccccc2)CC1)c1ccc(F)cc1`, the pIC50 was 6.62.

`CCC(CC)(CNC(=O)C1CCN(CCc2cccc(F)c2)CC1)c1ccc(F)cc1`: the negative logarithm of the IC50 (pIC50) was 6.89.

`O=C(NCC1(c2ccc(F)cc2)CCCCC1)C1CCCN(Cc2ccccc2)C1` (configuration not stated): the pIC50 was 5.92.

The subject of the next data set is Rattus norvegicus. In words: Antihypertensive activity in spontaneously hypertensive rat assessed as reduction of mean blood pressure at 30 mg/kg, po. It counts as functional. Details: scale not given: the % may be the effect or the level left.
Details: not given
`CCC(CC)(CNC(=O)C1CCN(CCc2ccccc2)CC1)c1ccc(F)cc1`: the Activity was determined as 22%.

In the next data set the test system is Rattus norvegicus. Briefly: Toxicity in spontaneously hypertensive rat assessed as effect on reflex tachycardia at 30 mg/kg, po after 8 hrs. It counts as organism-based. Also on record: dose 30 mg/kg, route oral. The conditions noted are these: in vivo.
Take `CCC(CC)(CNC(=O)C1CCN(CCc2ccccc2)CC1)c1ccc(F)cc1`: the Activity result is “Non-toxic”.
